Experimental data: ChEMBL document CHEMBL4823283, “Vomifoliol isolated from mangrove plant Ceriops tagal inhibits the NFAT signaling pathway with CN as the target enzyme in vitro” (Bioorg Med Chem Lett, 2021)

How the values were obtained:
Splenocyte [1] = test: Cytotoxicity against mouse splenocytes assessed as cell survival in presence of ConA measured after 44 hrs by CCK-8 assay; format: functional, cell-based
[2] = target: T1, Nuclear factor of activated T-cells, cytoplasmic 1 (Homo sapiens) (UniProt O95644); test: Inhibition of human NFAT-1 in human Jurkat cells assessed as decrease of PMA/ionomycin-induced IL-2 concentration measured after 44 hrs by western blot assay; format: cell-based; conditions: dose 5-25 µM
T1 sequence (whole entry): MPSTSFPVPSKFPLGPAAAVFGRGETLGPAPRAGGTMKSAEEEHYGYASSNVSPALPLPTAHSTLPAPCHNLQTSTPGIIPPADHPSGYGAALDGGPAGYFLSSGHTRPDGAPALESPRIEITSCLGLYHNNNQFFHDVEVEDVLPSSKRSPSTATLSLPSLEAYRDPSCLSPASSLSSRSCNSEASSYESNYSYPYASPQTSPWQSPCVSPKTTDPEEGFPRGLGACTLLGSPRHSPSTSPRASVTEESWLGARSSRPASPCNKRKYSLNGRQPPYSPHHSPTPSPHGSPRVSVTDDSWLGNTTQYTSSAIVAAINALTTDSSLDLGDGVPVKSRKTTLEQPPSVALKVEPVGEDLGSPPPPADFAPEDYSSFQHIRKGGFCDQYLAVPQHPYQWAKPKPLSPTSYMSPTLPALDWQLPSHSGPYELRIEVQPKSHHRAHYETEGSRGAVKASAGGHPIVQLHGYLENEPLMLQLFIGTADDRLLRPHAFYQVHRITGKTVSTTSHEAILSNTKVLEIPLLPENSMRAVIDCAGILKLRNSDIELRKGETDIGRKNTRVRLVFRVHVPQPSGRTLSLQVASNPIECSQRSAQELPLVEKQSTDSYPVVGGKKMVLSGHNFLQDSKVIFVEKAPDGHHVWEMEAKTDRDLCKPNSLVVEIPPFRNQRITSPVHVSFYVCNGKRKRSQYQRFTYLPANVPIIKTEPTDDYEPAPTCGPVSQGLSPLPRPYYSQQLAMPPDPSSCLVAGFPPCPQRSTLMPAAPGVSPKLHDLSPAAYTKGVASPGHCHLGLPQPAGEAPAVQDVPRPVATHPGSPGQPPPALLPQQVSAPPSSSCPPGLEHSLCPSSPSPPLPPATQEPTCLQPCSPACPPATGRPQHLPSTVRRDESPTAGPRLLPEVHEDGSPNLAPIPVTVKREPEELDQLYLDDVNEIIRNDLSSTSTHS

Jurkat [3] = test: Cytotoxicity against human Jurkat cells assessed as cell survival at 1 to 40 uM measured after 48 hrs by MTT assay relative to control; format: functional; conditions: dose 1-40 µM
Jurkat [4] = test: Cytotoxicity against human Jurkat cells assessed as inhibition of PMA/ionomycin-induced proliferation measured after 48 hrs by MTT assay; format: functional, cell-based
[5] = target: T1, Nuclear factor of activated T-cells, cytoplasmic 1 (Homo sapiens); test: Inhibition of human NFAT-1 in human Jurkat cells assessed as decrease of PMA/ionomycin-induced NFAT dephosphorylation measured after 44 hrs by western blot assay; format: cell-based; conditions: dose 5-25 µM
[6] = Inhibition of calcineurin (unknown origin); parameters: species or system Homo sapiens
Jurkat [7] = test: Cytotoxicity against human Jurkat cells assessed as cell survival at 75 to 100 uM measured after 48 hrs by MTT assay relative to control; format: functional; conditions: dose 75-100 µM
Splenocyte [8] = test: Cytotoxicity against mouse splenocytes assessed as cell survival at 1 to 30 uM measured after 48 hrs by CCK-8 assay relative to control; format: functional; conditions: dose 1-30 µM
Splenocyte [9] = test: Cytotoxicity against mouse splenocytes assessed as cell survival at 50 to 100 uM measured after 48 hrs by CCK-8 assay relative to control; format: functional; conditions: dose 50-100 µM
[10] = target: Protein phosphatase 3 catalytic subunit alpha (Homo sapiens) (UniProt Q08209); test: Inhibition of human calcineurin activity in PMA/ionomycin-induced human Jurkat cells measured after 44 hrs by Malachite green dye based fast green assay; conditions: dose 1-100 µM

CC1=CC(=O)CC(C)(C)[C@@]1(O)/C=C/[C@@H](C)O [BLUMENOL A]
Activity (Splenocyte [1]): Dose-Dependent Effect
IC50 (Splenocyte [1]): 18.7 µM
Activity [2]: Dose-Dependent Effect
Activity (Jurkat [3]): >90%
Activity (Jurkat [4]): Dose-Dependent Effect
IC50 (Jurkat [4]): 20.2 µM
Activity [5]: Dose-Dependent Effect
IC50 [6]: 15.1 µM
Activity (Jurkat [7]): <90%
Activity (Splenocyte [8]): >90%
Activity (Splenocyte [9]): <90%
Activity [10]: Dose-Dependent Effect
